Source: patent publication US8962843B2, “1,3,4-oxadiazole and 1,3,4-thiadiazole beta-lactamase inhibitors” (priority 2012, dated 2015)
Counter-ions that a name gives are not always drawn.

What was measured:
[1] = tested on: bacterial strains that express the class D cephalosporinase OXA-15; experiment: Standard BLI potentiation MIC / synergy MIC assays, strains expressing OXA-15; type: cell-based, E. coli; settings: in combination with a β-lactam; comparator Avibactam (CCC)
Protocol: (§1) The experimental protocol was performed according to Clinical and Laboratory Standards Institute (CLSI) guidelines with modifications as described below (CLSI guidelines can be derived from the CLSI document M07-A9 published in January 2012: “Methods for Dilution Antimicrobial Susceptibility Tests for Bacteria That Grow Aerobically; Approved Standard-Ninth Edition”).
(§2) To prepare for MIC testing, frozen glycerol stocks of clinical isolates (Klebsiella pneumoniae, Eschericia coli, Enterobacter spp, Citrobacter spp, or Pseudomonas aeruginosa) were used to streak for isolated colonies on rich, non-selective, tryptic soy agar containing 5% sheep's blood (TSAB). Frozen glycerol stocks of laboratory engineered, isogenic E. coli strains, which contain cloned β-lactamase expressing plasmids were used to streak for isolated colonies on rich, selective LB agar supplemented with 25 μg/mL tetracycline to maintain the plasmid. All strains were incubated at 37° C. for 18-24 hrs.
(§3) On the day of testing, primary cultures were started by scraping off 5-10 colonies from the TSAB plates containing clinical strains or the tetracycline supplemented LB plates containing engineered strains. The clinical strain material was suspended in ˜5 mL of cation adjusted Mueller Hinton Broth (CAMHB) in 14 mL culture tubes. The engineered strain material was suspended in CAMHB (supplemented with 25 μg/mL tetracycline) in 14 mL culture tubes. All strains were incubated at 37° C. with aeration (200 rpm) for ˜2 hrs until the optical density at 600 nm (OD600) was >0.1.
(§4) The two compound components of the assay were each diluted in CAMHB and added to the 96-well broth microdilution assay plates. 50 μL of the β-lactam was added to each well of the assay plate in 2-fold dilutions with final concentrations ranging from 128 to 0.13 μg/mL. 25 μL of the BLI compound was added to all wells in the broth microdilution plates at a final concentration of 4 μg/mL. Inoculum cultures were prepared by standardizing the primary cultures to OD600=0.1 and then adding 20 μL of the adjusted primary culture per 1 mL CAMHB for clinical strains or CAMHB (supplemented with tetracycline at 100 μg/mL) for engineered strains, so that the final inoculum density was ˜10^5 colony forming units per milliliter. Diluted inoculum cultures were used to inoculate 25 μl, per well in 96-well broth microdilution assay plates. The final volume of each well was 100 μL and contained a β-lactam at different concentrations, a BLlcompound at 4 μg/mL concentration, the bacterial culture at an OD600 of approximately 0.001 and when necessary tetracycline at 25 μg/mL.
(§5) Plates were incubated for 18-20 hours at 37° C. with aeration (200 rpm). Following incubation, growth was confirmed visually placing plates over a viewing apparatus (stand with a mirror underneath) and then OD600 was measured using a SpectraMax 340PC384 plate reader (Molecular Devices, Sunnyvale, Calif.). Growth was defined as turbidity that could be detected with the naked eye or achieving minimum OD600 of 0.1. MIC values were defined as the lowest concentration producing no visible turbidity.
(§6) The synergy MIC (sMIC) assay determines the concentration of the BLI required to potentiate the activity of a fixed concentration of a β-lactam antibiotic against β-lactamase producing bacterial strains. The experimental protocol was performed according to Clinical and Laboratory Standards Institute (CLSI) guidelines with modifications as described below (CLSI guidelines can be derived from the CLSI document M07-A9 published in January 2012: “Methods for Dilution Antimicrobial Susceptibility Tests for Bacteria That Grow Aerobically; Approved Standard-Ninth Edition”). […]

[2] = tested on: bacterial strains that express KPC β-lactamases; experiment: Standard BLI potentiation MIC / synergy MIC assays, strains expressing KPC β-lactamases; type: cell-based; settings: in combination with a β-lactam; comparator Avibactam
Protocol: as §1, §2, §3, §4, §5, §6

**Q.** With `O=C1N2C[C@@H](CC[C@H]2c2nnco2)N1OS(=O)(=O)O` [Compound 701, (2S,5R)-2-(1,3,4-oxadiazol-2-yl)-7-oxo-1,6-diazabicyclo[3.2.1]octan-6-yl hydrogen sulfate] as the molecule, how does the “activity against bacterial strains that express the class D cephalosporinase OXA-15, compared with Avibactam” value [1] read?
**A.** The value was “more active than Avibactam”.

**Q.** And the “activity and/or spectrum of activity against bacterial strains that express KPC β-lactamases, compared with Avibactam” value [2]?
**A.** Its value is “more active than Avibactam for at least one, bacterial strain that expresses KPC β-lactamase and/or show a better spectrum of activity”.

**Q.** With `NCc1nnc([C@@H]2CC[C@@H]3CN2C(=O)N3OS(=O)(=O)O)o1` [Compound 702, (2S,5R)-2-(5-(aminomethyl)-1,3,4-oxadiazol-2-yl)-7-oxo-1,6-diazabicyclo[3.2.1]octan-6-yl hydrogen sulfate] as the molecule, how does the “activity against bacterial strains that express the class D cephalosporinase OXA-15, compared with Avibactam” value [1] read?
**A.** The value was “more active than Avibactam”.

**Q.** What about the “activity and/or spectrum of activity against bacterial strains that express KPC β-lactamases, compared with Avibactam” value [2] of the same molecule?
**A.** Its value is “more active than Avibactam for at least one, bacterial strain that expresses KPC β-lactamase and/or show a better spectrum of activity”.

**Q.** How did the “activity against bacterial strains that express the class D cephalosporinase OXA-15, compared with Avibactam” value [1] turn out when `NCCc1nnc([C@@H]2CC[C@@H]3CN2C(=O)N3OS(=O)(=O)O)o1` [Compound 703, (2S,5R)-2-(5-(2-aminoethyl)-1,3,4-oxadiazol-2-yl)-7-oxo-1,6-diazabicyclo[3.2.1]octan-6-yl hydrogen sulfate] was run?
**A.** The value was “more active than Avibactam”.

**Q.** What about the “activity and/or spectrum of activity against bacterial strains that express KPC β-lactamases, compared with Avibactam” value [2] of the same molecule?
**A.** Its value is “more active than Avibactam for at least one, bacterial strain that expresses KPC β-lactamase and/or show a better spectrum of activity”.

**Q.** Which “activity against bacterial strains that express the class D cephalosporinase OXA-15, compared with Avibactam” value [1] does the source give for `N=C(N)NCCc1nnc([C@@H]2CC[C@@H]3CN2C(=O)N3OS(=O)(=O)O)o1` [Compound 705, (2S,5R)-2-(5-(2-guanidinoethyl)-1,3,4-oxadiazol-2-yl)-7-oxo-1,6-diazabicyclo[3.2.1]octan-6-yl hydrogen sulfate] here?
**A.** Its value is “more active than Avibactam”.

**Q.** And the “activity and/or spectrum of activity against bacterial strains that express KPC β-lactamases, compared with Avibactam” value [2]?
**A.** The value was “more active than Avibactam for at least one, bacterial strain that expresses KPC β-lactamase and/or show a better spectrum of activity”.

**Q.** How did the “activity against bacterial strains that express the class D cephalosporinase OXA-15, compared with Avibactam” value [1] turn out when `NC(=O)c1nnc([C@@H]2CC[C@@H]3CN2C(=O)N3OS(=O)(=O)O)o1` [Compound 706, (2S,5R)-2-(5-carbamoyl-1,3,4-oxadiazol-2-yl)-7-oxo-1,6-diaza-bicyclo[3.2.1]octan-6-yl hydrogen sulfate] was run?
**A.** The value was “more active than Avibactam”.

**Q.** What about the “activity and/or spectrum of activity against bacterial strains that express KPC β-lactamases, compared with Avibactam” value [2] of the same molecule?
**A.** The value was “more active than Avibactam for at least one, bacterial strain that expresses KPC β-lactamase and/or show a better spectrum of activity”.

**Q.** Which results are given for `O=C1N2C[C@@H](CC[C@H]2c2nnc(C3CNC3)o2)N1OS(=O)(=O)O` [Compound 708, (2S,5R)-2-(5-(azetidin-3-yl)-1,3,4-oxadiazol-2-yl)-7-oxo-1,6-diazabicyclo[3.2.1]octan-6-yl hydrogen sulfate]?
**A.** activity against bacterial strains that express the class D cephalosporinase OXA-15, compared with Avibactam [1]: more active than Avibactam; activity and/or spectrum of activity against bacterial strains that express KPC β-lactamases, compared with Avibactam [2]: more active than Avibactam for at least one, bacterial strain that expresses KPC β-lactamase and/or show a better spectrum of activity

**Q.** `N=C(N)N1CC(c2nnc([C@@H]3CC[C@@H]4CN3C(=O)N4OS(=O)(=O)O)o2)C1` [Compound 709, (2S,5R)-2-(5-(1-carbamimidoylazetidin-3-yl)-1,3,4-oxadiazol-2-yl)-7-oxo-1,6-diazabicyclo[3.2.1]octan-6-yl hydrogen sulfate] was tested. Which “activity against bacterial strains that express the class D cephalosporinase OXA-15, compared with Avibactam” value [1] did it give?
**A.** The value was “more active than Avibactam”.

**Q.** And the “activity and/or spectrum of activity against bacterial strains that express KPC β-lactamases, compared with Avibactam” value [2]?
**A.** Its value is “more active than Avibactam for at least one, bacterial strain that expresses KPC β-lactamase and/or show a better spectrum of activity”.

**Q.** `O=C1N2C[C@@H](CC[C@H]2c2nnc(C3CCNC3)o2)N1OS(=O)(=O)O` (stereo partly drawn) [Compound 710, (2S,5R)-7-oxo-2-(5-(pyrrolidin-3-yl)-1,3,4-oxadiazol-2-yl)-1,6-diazabicyclo[3.2.1]octan-6-yl hydrogen sulfate] was tested. Which “activity against bacterial strains that express the class D cephalosporinase OXA-15, compared with Avibactam” value [1] did it give?
**A.** The value was “more active than Avibactam”.

**Q.** What about the “activity and/or spectrum of activity against bacterial strains that express KPC β-lactamases, compared with Avibactam” value [2] of the same molecule?
**A.** The value was “more active than Avibactam for at least one, bacterial strain that expresses KPC β-lactamase and/or show a better spectrum of activity”.

**Q.** Which “activity against bacterial strains that express the class D cephalosporinase OXA-15, compared with Avibactam” value [1] does the source give for `O=C1N2C[C@@H](CC[C@H]2c2nnc(C3CCNCC3)o2)N1OS(=O)(=O)O` [Compound 711, (2S,5R)-7-oxo-2-(5-(piperidin-4-yl)-1,3,4-oxadiazol-2-yl)-1,6-diazabicyclo[3.2.1]octan-6-yl hydrogen sulfate] here?
**A.** Its value is “more active than Avibactam”.

**Q.** And the “activity and/or spectrum of activity against bacterial strains that express KPC β-lactamases, compared with Avibactam” value [2]?
**A.** The value was “more active than Avibactam for at least one, bacterial strain that expresses KPC β-lactamase and/or show a better spectrum of activity”.

**Q.** With `NCCCc1nnc([C@@H]2CC[C@@H]3CN2C(=O)N3OS(=O)(=O)O)o1` [Compound 720, (2S,5R)-2-(5-(3-aminopropyl)-1,3,4-oxadiazol-2-yl)-7-oxo-1,6-diazabicyclo[3.2.1]octan-6-yl hydrogen sulfate] as the molecule, how does the “activity against bacterial strains that express the class D cephalosporinase OXA-15, compared with Avibactam” value [1] read?
**A.** Its value is “more active than Avibactam”.

**Q.** And the “activity and/or spectrum of activity against bacterial strains that express KPC β-lactamases, compared with Avibactam” value [2]?
**A.** The value was “more active than Avibactam for at least one, bacterial strain that expresses KPC β-lactamase and/or show a better spectrum of activity”.

**Q.** How did the “activity against bacterial strains that express the class D cephalosporinase OXA-15, compared with Avibactam” value [1] turn out when `N=C(N)NCc1nnc([C@@H]2CC[C@@H]3CN2C(=O)N3OS(=O)(=O)O)s1` [Compound 721, (2S,5R)-2-(5-(guanidinomethyl)-1,3,4-thiadiazol-2-yl)-7-oxo-1,6-diazabicyclo[3.2.1]octan-6-yl hydrogen sulfate] was run?
**A.** The value was “more active than Avibactam”.

**Q.** And the “activity and/or spectrum of activity against bacterial strains that express KPC β-lactamases, compared with Avibactam” value [2]?
**A.** The value was “more active than Avibactam for at least one, bacterial strain that expresses KPC β-lactamase and/or show a better spectrum of activity”.

**Q.** Which “activity against bacterial strains that express the class D cephalosporinase OXA-15, compared with Avibactam” value [1] does the source give for `CNCCc1nnc([C@@H]2CC[C@@H]3CN2C(=O)N3OS(=O)(=O)O)o1` [Compound 722, (2S,5R)-2-(5-(2-(methylamino)ethyl)-1,3,4-oxadiazol-2-yl)-7-oxo-1,6-diazabicyclo[3.2.1]octan-6-yl hydrogen sulfate] here?
**A.** Its value is “more active than Avibactam”.

**Q.** And the “activity and/or spectrum of activity against bacterial strains that express KPC β-lactamases, compared with Avibactam” value [2]?
**A.** Its value is “more active than Avibactam for at least one, bacterial strain that expresses KPC β-lactamase and/or show a better spectrum of activity”.

**Q.** What does the source list for `N=C(N)NCC1(c2nnc([C@@H]3CC[C@@H]4CN3C(=O)N4OS(=O)(=O)O)o2)CC1` [Compound 723, (2S,5R)-2-(5-(1-(guanidinomethyl)cyclopropyl)-1,3,4-oxadiazol-2-yl)-7-oxo-1,6-diazabicyclo[3.2.1]octan-6-yl hydrogen sulfate]?
**A.** activity against bacterial strains that express the class D cephalosporinase OXA-15, compared with Avibactam [1]: more active than Avibactam; activity and/or spectrum of activity against bacterial strains that express KPC β-lactamases, compared with Avibactam [2]: more active than Avibactam for at least one, bacterial strain that expresses KPC β-lactamase and/or show a better spectrum of activity

**Q.** `NC1CCN(CCc2nnc([C@@H]3CC[C@@H]4CN3C(=O)N4OS(=O)(=O)O)o2)CC1` [Compound 775, (2S,5R)-2-(5-(2-(4-aminopiperidin-1-ybethyl)-1,3,4-oxadiazol-2-yl)-7-oxo-1,6-diazabicyclo[3.2.1]octan-6-yl hydrogen sulfate] was tested. Which “activity and/or spectrum of activity against bacterial strains that express KPC β-lactamases, compared with Avibactam” value [2] did it give?
**A.** The value was “more active than Avibactam for at least one, bacterial strain that expresses KPC β-lactamase and/or show a better spectrum of activity”.
